Measurements taken from ChEMBL document CHEMBL5338738, “Discovery of Novel Sesquiterpene Lactone Derivatives as Potent PKM2 Activators for the Treatment of Ulcerative Colitis” (J Med Chem, 2023).
Active and inactive are the calls of the source. The calls are words filed in the database; no cut-off is given here.

How the values were obtained:
Mus musculus [1] = test: Anti-colitis activity against DSS-induced ulcerative colitis C57BL/6 mouse model assessed as decrease in percentage of Th17 cells in colonic lamina propria at 12.5 to 25 mg/kg, po for 10 days consecutively by flow cytometry; type: functional, organism-based; settings: dose 12.5-25 mg/kg, time 10.0 day
Mus musculus [2] = test: Anti-colitis activity against DSS-induced ulcerative colitis C57BL/6 mouse model assessed as reduction in disease activity index (DAI) score at 12.5 to 25 mg/kg, po for 10 days consecutively; type: functional, organism-based; settings: dose 12.5-25 mg/kg, time 10.0 day
CD4+ve Th [3] = test: (§1) Inhibition of Th17 cells differentiation in anti-CD3/CD28 stimulated C57BL/6 mouse mesenteric lymph node CD4+ve Th cells assessed as downregulation of RORC mRNA expression level at 0.1 to 3 uM incubated for 96 hrs in presence of recombinant human TGF-beta, recombinant mouse IL-6 and recombinant mouse IL-23 by qPCR analysis; type: functional, cell-based; settings: dose 0.1-3 µM
[4] = as §1, with “decrease in proportion” for “downregulation”, “IL17A-positive Th17 cells” for “RORC mRNA expression level”, “0.3” for “0.1 to 3”, “flow cytometry (Rvb= 16.7%)” for “qPCR analysis”; type: functional; settings: C57BL/6, CD4+ve Th
Mus musculus [5] = test: Anti-colitis activity against DSS-induced ulcerative colitis C57BL/6 mouse model assessed as downregulation of Foxp3 mRNA expression level in colon at 6.25 to 25 mg/kg, po for 10 days consecutively by qPCR assay; type: functional, organism-based; settings: dose 6.25-25 mg/kg, time 10.0 day
Mus musculus [6] = test: Anti-colitis activity against DSS-induced ulcerative colitis C57BL/6 mouse model assessed as downregulation of IL10 mRNA expression level in colon at 6.25 to 25 mg/kg, po for 10 days consecutively by qPCR assay; type: functional, organism-based; settings: dose 6.25-25 mg/kg, time 10.0 day
Mus musculus [7] = test: Anti-colitis activity against TNBS-induced ulcerative colitis BALB/c mouse model assessed as increase in survival rate at 12.5 to 25 mg/kg, po for consecutive 7 days; type: functional, organism-based; settings: dose 12.5-25 mg/kg, time 7.0 day
[8] = Toxicity in C57BL/6 mouse assessed as histological change in kidney at 6.25 to 25 mg/kg, po for 10 days consecutively by H and E staining based microscopy; type: organism-based; settings: in vivo, 240 h, dose 6.25-25 mg/kg, time 10 day
[9] = Cmax in Sprague-Dawley rat at 75 mg/kg,po and measured upto 24 hrs by LC-MS/MS analysis; type: ADME, organism-based; design: dose 75 mg/kg, time < 24 hrs, route po; settings: in vivo
CD4+ve Th [10] = test: as §1, with “IL17a” for “RORC”; type: functional, cell-based; settings: dose 0.1-3 µM
[11] = (§2) Inhibition of Treg cells differentiation in anti-CD3/CD28 stimulated C57BL/6 mouse mesenteric lymph node CD4+ve Th cells assessed as decrease in proportion of Foxp3-positive Treg cells at 1 uM incubated for 96 hrs in presence of recombinant human TGF-beta by flow cytometry (Rvb= 21.1%); type: functional; settings: C57BL/6, CD4+ve Th
Mus musculus [12] = test: Anti-colitis activity against DSS-induced ulcerative colitis C57BL/6 mouse model assessed as decrease in TNF-alpha mRNA expression level in colon at 12.5 to 25 mg/kg, po for 10 days consecutively by qPCR analysis; type: functional, organism-based; settings: dose 12.5-25 mg/kg, time 10.0 day
Mus musculus [13] = test: Anti-colitis activity against DSS-induced ulcerative colitis C57BL/6 mouse model assessed as downregulation of IL17a mRNA expression level in mesenteric lymph nodes at 12.5 to 25 mg/kg, po for 10 days consecutively by qPCR assay; type: functional, organism-based; settings: dose 12.5-25 mg/kg, time 10.0 day
Mus musculus [14] = test: Anti-colitis activity against TNBS-induced ulcerative colitis BALB/c mouse model assessed as decrease in infiltration of inflammatory cells into lamina propria in colon at 12.5 to 25 mg/kg, po for consecutive 7 days by H and E staining based microscopy; type: functional, organism-based; settings: dose 12.5-25 mg/kg, time 7.0 day
Mus musculus [15] = test: Anti-colitis activity against DSS-induced ulcerative colitis C57BL/6 mouse model assessed as reduction in histological score in colon at 12.5 to 25 mg/kg, po for 10 days consecutively by H and E staining based microscopic analysis; type: functional, organism-based; settings: dose 12.5-25 mg/kg, time 10.0 day
Mus musculus [16] = test: Anti-colitis activity against TNBS-induced ulcerative colitis BALB/c mouse model assessed as increase in colon length at 12.5 to 25 mg/kg, po for consecutive 7 days; type: functional, organism-based; settings: dose 12.5-25 mg/kg, time 7.0 day
Mus musculus [17] = test: Anti-colitis activity against DSS-induced ulcerative colitis C57BL/6 mouse model assessed as reduction in mucosal damage in colon at 12.5 to 25 mg/kg, po for 10 days consecutively by H and E staining based microscopic analysis; type: functional, organism-based; settings: dose 12.5-25 mg/kg, time 10.0 day
Mus musculus [18] = test: Anti-colitis activity against DSS-induced ulcerative colitis C57BL/6 mouse model assessed as reduction in spleen index at 12.5 to 25 mg/kg, po for 10 days consecutively; type: functional, organism-based; settings: dose 12.5-25 mg/kg, time 10.0 day
CD4+ve Th [19] = test: as §1, with “aerobic glycolysis” for “Th17 cells differentiation”, “Glut1” for “RORC”, “0.3” for “0.1”; type: functional, cell-based; settings: dose 0.3-3 µM
[20] = Genotoxicity in Salmonella typhimurium by AMES test; type: toxicity; settings: salmonella enterica subsp. enterica serovar typhimurium
[21] = Inhibition of Treg cells differentiation in anti-CD3/CD28 stimulated C57BL/6 mouse mesenteric lymph node CD4+ve Th cells assessed as decrease in proportion of Foxp3-positive Treg cells at 3 uM incubated for 96 hrs in presence of recombinant human TGF-beta by flow cytometry (Rvb= 21.1%); type: functional; settings: C57BL/6, CD4+ve Th
[22] = as §2, with “Th17” for “Treg”, “IL17A-positive Th17” for “Foxp3-positive Treg”, “TGF-beta, recombinant mouse IL-6 and recombinant mouse IL-23” for “TGF-beta”, “16.7%)” for “21.1%)”; type: functional; settings: C57BL/6, CD4+ve Th
[23] = Toxicity in C57BL/6 mouse assessed as body weight change at 6.25 to 25 mg/kg, po for 10 days consecutively; type: organism-based; settings: in vivo, 240 h, dose 6.25-25 mg/kg, time 10 day
CD4+ve Th [24] = test: as §1, with “aerobic glycolysis” for “Th17 cells differentiation”, “Pfk1” for “RORC”, “0.3” for “0.1”; type: functional, cell-based; settings: dose 0.3-3 µM
[25] = MRT(t) in Sprague-Dawley rat at 75 mg/kg,po and measured upto 24 hrs by LC-MS/MS analysis; type: ADME, organism-based; settings: in vivo
[26] = Toxicity in C57BL/6 mouse assessed as histological change in spleen at 6.25 to 25 mg/kg, po for 10 days consecutively by H and E staining based microscopy; type: organism-based; settings: in vivo, 240 h, dose 6.25-25 mg/kg, time 10 day
[27] = Half life in Sprague-Dawley rat at 75 mg/kg,po and measured upto 24 hrs by LC-MS/MS analysis; type: ADME, organism-based; settings: in vivo
CD4+ve Th [28] = test: as §1, with “aerobic glycolysis” for “Th17 cells differentiation”, “Glut1 protein” for “RORC mRNA”, “0.3” for “0.1”, “Western blot” for “qPCR”; type: functional, cell-based; settings: dose 0.3-3 µM
[29] = Toxicity in C57BL/6 mouse assessed as histological change in liver at 6.25 to 25 mg/kg, po for 10 days consecutively by H and E staining based microscopy; type: organism-based; settings: in vivo, 240 h, dose 6.25-25 mg/kg, time 10 day
[30] = Inhibition of Treg cells differentiation in anti-CD3/CD28 stimulated C57BL/6 mouse mesenteric lymph node CD4+ve Th cells assessed as decrease in proportion of Foxp3-positive Treg cells at 0.3 uM incubated for 96 hrs in presence of recombinant human TGF-beta by flow cytometry (Rvb= 21.1%); type: functional; settings: C57BL/6, CD4+ve Th

For `C=C1C(=O)O[C@H]2[C@H]1CC[C@@]1(C)[C@@H](CC[C@@]3(C)O[C@@H]23)C1(F)F`, the Activity (Mus musculus [1]) was “Active”, the Activity (Mus musculus [2]) was “Active” and the inhibition (CD4+ve Th [3]) was “Active”. For the same compound, the IL17A+ cells at 0.3 µM [4] was 12.4%, the Activity (Mus musculus [5]) was “inactive” and the Activity (Mus musculus [6]) was “inactive”. The Activity (Mus musculus [7]) was “Active”, the Activity [8] was “Non-Toxic” and the Cmax [9] was 82 ng/mL. The inhibition (CD4+ve Th [10]) was “Active”, the Foxp3+ cells at 1 µM [11] was 22.8% and the Activity (Mus musculus [12]) was “Active”. For the same compound, the Activity (Mus musculus [13]) was “Active”, the Activity (Mus musculus [14]) was “Active” and the Activity (Mus musculus [15]) was “Active”. The Activity (Mus musculus [16]) was “Active”, the Activity (Mus musculus [17]) was “Active” and the Activity (Mus musculus [18]) was “Active”. For the same compound, the inhibition (CD4+ve Th [19]) was “Active”, the Activity [20] was “Non-Toxic” and the Foxp3+ cells at 3 µM [21] was 20.8%. For the same compound, the IL17A+ cells at 1 µM [22] was 8.1%, the Activity [23] was “Non-Toxic” and the inhibition (CD4+ve Th [24]) was “Active”. The MRT last at 24 h [25] was 12.4 h, the Activity [26] was “Non-Toxic” and the half-life [27] was 8 h. For the same compound, the inhibition (CD4+ve Th [28]) was “Active”, the Activity [29] was “Non-Toxic” and the Foxp3+ cells at 0.3 µM [30] was 18.4%.
